According to ChEMBL document CHEMBL4130413, “1-Aryl-1H- and 2-aryl-2H-1,2,3-triazole derivatives blockade P2X7 receptor in vitro and inflammatory response in vivo” (Eur J Med Chem, 2017):
Blank lines part the entries; values can stand above or below the molecule they belong to. Activity calls are given as the source filed them. The rule behind the calls is not given here.

Key:
[1] = biological target: T1, P2X purinoceptor 7 (Homo sapiens) (UniProt Q99572); test: Antagonist activity at human P2X7 receptor expressed in HEK293 cells assessed as inhibition of ATP-induced ethidium iodide uptake at 750 nM preincubated for 10 mins followed by ATP addition measured after 20 mins by FLIPR assay relative to 1 mM ATP; assay type: cell-based
T1 sequence (whole entry): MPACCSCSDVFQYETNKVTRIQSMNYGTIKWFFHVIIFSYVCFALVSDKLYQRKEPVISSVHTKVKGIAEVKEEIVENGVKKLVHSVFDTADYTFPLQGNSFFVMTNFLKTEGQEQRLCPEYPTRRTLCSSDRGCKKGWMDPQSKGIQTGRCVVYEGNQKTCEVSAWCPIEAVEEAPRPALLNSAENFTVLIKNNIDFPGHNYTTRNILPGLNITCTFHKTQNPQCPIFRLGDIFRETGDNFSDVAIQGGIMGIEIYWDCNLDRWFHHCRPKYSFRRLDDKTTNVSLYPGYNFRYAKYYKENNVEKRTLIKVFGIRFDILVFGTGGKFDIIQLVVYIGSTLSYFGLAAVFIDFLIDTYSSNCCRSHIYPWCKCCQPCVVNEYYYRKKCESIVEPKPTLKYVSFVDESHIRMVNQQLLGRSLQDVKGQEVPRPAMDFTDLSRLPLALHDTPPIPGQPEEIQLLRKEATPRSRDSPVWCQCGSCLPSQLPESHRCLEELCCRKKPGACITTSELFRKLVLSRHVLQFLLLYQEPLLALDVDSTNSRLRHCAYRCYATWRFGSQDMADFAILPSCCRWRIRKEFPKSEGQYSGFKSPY

[2] = biological target: T2, P2X purinoceptor 7 (Mus musculus) (UniProt Q9Z1M0); test: (§1) Antagonist activity at P2X7 receptor in Swiss mouse peritoneal macrophages assessed as inhibition of ATP-induced propidium iodide uptake after 25 mins by flow cytometric analysis
T2 sequence (whole entry): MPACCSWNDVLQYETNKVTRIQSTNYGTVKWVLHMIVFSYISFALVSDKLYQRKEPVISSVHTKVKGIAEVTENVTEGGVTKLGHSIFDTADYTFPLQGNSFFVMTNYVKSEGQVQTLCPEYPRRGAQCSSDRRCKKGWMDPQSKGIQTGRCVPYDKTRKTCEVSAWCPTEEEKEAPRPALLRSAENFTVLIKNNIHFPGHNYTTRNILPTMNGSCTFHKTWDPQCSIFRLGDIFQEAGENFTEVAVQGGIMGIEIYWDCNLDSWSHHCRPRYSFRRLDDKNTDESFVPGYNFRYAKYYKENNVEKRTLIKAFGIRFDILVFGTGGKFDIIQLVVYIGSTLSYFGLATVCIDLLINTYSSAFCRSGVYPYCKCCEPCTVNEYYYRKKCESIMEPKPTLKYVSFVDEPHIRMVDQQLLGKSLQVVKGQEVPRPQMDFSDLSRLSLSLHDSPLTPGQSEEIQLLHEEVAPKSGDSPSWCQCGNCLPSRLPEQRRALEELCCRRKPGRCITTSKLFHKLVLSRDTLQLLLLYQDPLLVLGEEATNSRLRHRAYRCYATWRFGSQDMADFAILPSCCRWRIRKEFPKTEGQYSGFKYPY

P2X purinoceptor 7 [3] = biological target: T3, P2X purinoceptor 7 (Mus musculus, UniProt Q9Z1M0); test: as §1
T3 sequence (Q9Z1M0 whole entry): T2 sequence (whole entry)

Peritoneal macrophage [4] = test: Toxicity in Swiss mouse peritoneal macrophages assessed as LDH release at 750 nM after 60 mins relative to 0.05% Triton X-100; assay type: cell-based; details: 1 h, 0.75 µM
P2X purinoceptor 7 [5] = biological target: T3, P2X purinoceptor 7; test: Antagonist activity at P2X7 receptor in Swiss mouse peritoneal macrophages assessed as inhibition of BzATP-induced current at holding potential of -60 mV preincubated for 5 mins followed by BzATP addition measured after 5 mins by Whole cell patch-clamp analysis
[6] = biological target: P2X purinoceptor 7 (Mus musculus) (UniProt Q9Z1M0); test: Antagonist activity at P2X7 receptor in Swiss mouse peritoneal macrophages assessed as inhibition of ATP-induced propidium iodide uptake at 750 nM after 30 mins by FLIPR assay relative to 1 mM ATP
P2X purinoceptor 7 [7] = biological target: T3, P2X purinoceptor 7; test: Antagonist activity at P2X7 receptor in Swiss mouse peritoneal macrophages assessed as inhibition of ATP-induced current at holding potential of -60 mV preincubated for 5 mins followed by ATP addition measured after 5 mins by Whole cell patch-clamp analysis
P2X purinoceptor 7 [8] = biological target: T3, P2X purinoceptor 7; test: Antagonist activity at P2X7 receptor in Swiss mouse peritoneal macrophages assessed as inhibition of BzATP-induced ethidium iodide uptake after 30 mins by spectrofluorometric analysis
P2X purinoceptor 7 [9] = biological target: T4, P2X purinoceptor 7 (Homo sapiens, UniProt Q99572); test: Antagonist activity at human P2X7 receptor expressed in HEK293 cells assessed as inhibition of ATP-induced ethidium iodide uptake preincubated for 10 mins followed by ATP addition measured after 20 mins by spectrofluorometric analysis; assay type: cell-based
T4 sequence (Q99572 whole entry): T1 sequence (whole entry)

Mus musculus [10] = test: Anti-inflammatory activity in po dosed Swiss Webster mouse assessed as inhibition of carrageenan-induced paw edema pretreated for 60 mins followed by carrageenan administration and measured after 60 mins; assay type: functional
Mus musculus [11] = test: Anti-inflammatory activity in ip dosed Swiss Webster mouse assessed as inhibition of carrageenan-induced paw edema pretreated for 60 mins followed by carrageenan administration and measured after 30 mins; assay type: functional
Mus musculus [12] = test: Anti-inflammatory activity in po dosed Swiss Webster mouse assessed as inhibition of ATP-induced paw edema pretreated for 60 mins followed by ATP administration and measured after 30 mins; assay type: functional
P2X purinoceptor 7 [13] = biological target: T3, P2X purinoceptor 7; test: Antagonist activity at P2X7 receptor in LPS/IFNc-differentiated Swiss mouse peritoneal macrophages assessed as inhibition of ATP-induced IL-1beta release preincubated for 30 mins followed by LPS stimulation for 4 hrs using cells treated with ATP for 30 mins by ELISA
P2X purinoceptor 7 [14] = biological target: T4, P2X purinoceptor 7; test: Antagonist activity at human P2X7 receptor in PMA-differentiated THP-1 macrophages assessed as inhibition of ATP-induced IL-1beta release preincubated for 30 mins followed by ATP addition measured after 30 mins by ELISA
Mus musculus [15] = test: Anti-inflammatory activity in ip dosed Swiss Webster mouse assessed as inhibition of ATP-induced paw edema pretreated for 60 mins followed by ATP administration and measured after 30 mins; assay type: functional
P2X purinoceptor 7 [16] = biological target: T4, P2X purinoceptor 7; test: Antagonist activity at human P2X7 receptor expressed in human 1321N1 cells assessed as reduction in agonist-induced intracellular Ca2+ levels preincubated for 3 mins followed by agonist addition measured up to 2 mins by Fluo-4 dye-based FLIPR assay; assay type: cell-based
P2X purinoceptor 7 [17] = biological target: T4, P2X purinoceptor 7; test: Antagonist activity at human P2X7 receptor expressed in human THP1 cells assessed as reduction in BzATP-induced pore formation by measuring YO-PRO uptake by FLIPR assay; assay type: cell-based
P2X purinoceptor 7 [18] = biological target: T3, P2X purinoceptor 7; test: Antagonist activity at mouse P2X7 receptor expressed in human 1321N1 cells assessed as reduction in agonist-induced intracellular Ca2+ levels preincubated for 3 mins followed by agonist addition measured up to 2 mins by Fluo-4 dye-based FLIPR assay; assay type: cell-based
P2X purinoceptor 7 [19] = biological target: T4, P2X purinoceptor 7; test: Antagonist activity at human P2X7 receptor expressed in human THP1 cells assessed as reduction in BzATP-induced IL-1beta levels preincubated for 30 mins followed by BzATP addition measured after 30 mins by ELISA; assay type: cell-based
P2X purinoceptor 7 [20] = biological target: P2X purinoceptor 7 (Rattus norvegicus, UniProt Q64663); test: Antagonist activity at rat P2X7 receptor expressed in human 1321N1 cells assessed as reduction in agonist-induced intracellular Ca2+ levels preincubated for 3 mins followed by agonist addition measured up to 2 mins by Fluo-4 dye-based FLIPR assay; assay type: cell-based
Chain of P2X purinoceptor 7 (Rattus norvegicus, UniProt Q64663) (Q64663 whole entry): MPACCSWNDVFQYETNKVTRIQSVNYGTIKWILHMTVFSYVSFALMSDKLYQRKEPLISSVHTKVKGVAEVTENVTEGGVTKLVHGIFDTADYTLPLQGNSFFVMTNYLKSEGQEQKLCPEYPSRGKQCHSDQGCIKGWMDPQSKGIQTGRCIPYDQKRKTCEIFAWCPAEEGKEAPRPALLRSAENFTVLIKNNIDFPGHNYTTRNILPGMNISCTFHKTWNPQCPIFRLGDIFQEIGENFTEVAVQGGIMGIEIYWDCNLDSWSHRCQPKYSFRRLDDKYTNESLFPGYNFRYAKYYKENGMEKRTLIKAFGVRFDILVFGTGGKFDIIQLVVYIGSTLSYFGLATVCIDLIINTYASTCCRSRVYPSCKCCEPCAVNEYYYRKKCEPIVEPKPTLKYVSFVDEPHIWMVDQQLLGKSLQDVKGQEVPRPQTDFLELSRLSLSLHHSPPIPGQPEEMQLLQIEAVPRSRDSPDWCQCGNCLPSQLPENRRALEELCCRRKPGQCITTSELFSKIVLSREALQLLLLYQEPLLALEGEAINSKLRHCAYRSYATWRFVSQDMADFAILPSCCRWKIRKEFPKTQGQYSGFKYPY

[21] = Cytotoxicity against Swiss mouse peritoneal macrophages after 24 hrs by LDH-release assay; assay type: cell-based, Peritoneal macrophage
[22] = biological target: T2, P2X purinoceptor 7 (Mus musculus); test: Antagonist activity at mouse P2X7 receptor expressed in HEK293 cells assessed as inhibition of ATP-induced ethidium iodide uptake at 10 uM preincubated for 10 mins followed by ATP addition measured after 20 mins by FLIPR assay relative to 1 mM ATP; assay type: cell-based
[23] = biological target: T1, P2X purinoceptor 7 (Homo sapiens); test: Antagonist activity at human P2X7 receptor expressed in HEK293 cells assessed as inhibition of ATP-induced ethidium iodide uptake at 10 uM preincubated for 10 mins followed by ATP addition measured after 20 mins by FLIPR assay relative to 1 mM ATP; assay type: cell-based
Peritoneal macrophage [24] = test: Toxicity in Swiss mouse peritoneal macrophages assessed as LDH release at 10 uM after 60 mins relative to 0.05% Triton X-100; assay type: cell-based; details: 1 h
[25] = biological target: P2X purinoceptor 7 (Mus musculus) (UniProt Q9Z1M0); test: Antagonist activity at P2X7 receptor in Swiss mouse peritoneal macrophages assessed as inhibition of ATP-induced propidium iodide uptake at 10 uM after 30 mins by FLIPR assay relative to 1 mM ATP

- inhibition [1]: 90.1%
- inhibition [2]: Dose-dependent effect
- IC50 (P2X purinoceptor 7 [3]): 343 nM
- IC50 (P2X purinoceptor 7 [5]): 407 nM
- inhibition [6]: 78.9%
- IC50 (P2X purinoceptor 7 [7]): 109 nM
- IC50 (P2X purinoceptor 7 [8]): 432 nM
- IC50 (P2X purinoceptor 7 [9]): 552 nM
Compound: CCOc1ccc(Nc2ccc(/C(=C3C=C/C(=[N+](/CC)Cc4cccc(S(=O)(=O)[O-])c4)C=C/3C)c3ccc(N(CC)Cc4cccc(S(=O)(=O)[O-])c4)cc3C)cc2)cc1.[Na+] [BRILLIANT BLUE G]
- Activity (Peritoneal macrophage [4]): 13.22%

- IC50 (P2X purinoceptor 7 [5]): 46.9 nM
- IC50 (P2X purinoceptor 7 [13]): 112 nM
- IC50 (P2X purinoceptor 7 [14]): 82 nM
- IC50 (P2X purinoceptor 7 [8]): 63.3 nM
- IC50 (P2X purinoceptor 7 [9]): 86 nM
Compound: COc1ccc(CC(=O)NC(N/C(=N/C#N)Nc2cccc3ncccc23)C(C)(C)C)cc1OC (configuration not stated)
- ID50 (Mus musculus [10]): 0.119 µg/kg
- ID50 (Mus musculus [11]): 0.1423 µg/kg
- ID50 (Mus musculus [12]): 0.1097 µg/kg
- ID50 (Mus musculus [15]): 0.1058 µg/kg

- IC50 (P2X purinoceptor 7 [16]): 20 to 150 nM
- IC50 (P2X purinoceptor 7 [17]): 6.61 nM
- IC50 (P2X purinoceptor 7 [18]): 20 to 150 nM
- IC50 (P2X purinoceptor 7 [19]): 37.2 nM
- IC50 (P2X purinoceptor 7 [20]): 20 to 150 nM
Compound: Clc1cccc(-n2nnnc2NCc2ccccc2Oc2ccccn2)c1Cl

- inhibition [2]: Dose-dependent effect
- IC50 (P2X purinoceptor 7 [3]): 96 nM
- inhibition [22]: Active
- inhibition [23]: 90.2%
- IC50 (P2X purinoceptor 7 [7]): 81 nM
- inhibition [25]: 84.2%
- IC50 (P2X purinoceptor 7 [9]): 522 nM
Compound: OCc1cnn(-c2ccccc2)n1
- CC50 at 24 h [21]: 2360 nM
- Activity (Peritoneal macrophage [24]): 9.18%
